Reference: patent US8946223B2, “Substituted hydroxamic acids and uses thereof” (Millennium Pharmaceuticals, Inc., priority 2010, dated 2015)
pIC50: −log10 of the molar value.

biological target: T1, purified human HDAC6 (Homo sapiens, UniProt Q9UBN7); experiment: HDAC6 enzyme assay; assay type: biochemical; conditions: bin: less than 100 nM
T1 construct: purchased BPS Bioscience 5006
T1 sequence (Q9UBN7 1-1215): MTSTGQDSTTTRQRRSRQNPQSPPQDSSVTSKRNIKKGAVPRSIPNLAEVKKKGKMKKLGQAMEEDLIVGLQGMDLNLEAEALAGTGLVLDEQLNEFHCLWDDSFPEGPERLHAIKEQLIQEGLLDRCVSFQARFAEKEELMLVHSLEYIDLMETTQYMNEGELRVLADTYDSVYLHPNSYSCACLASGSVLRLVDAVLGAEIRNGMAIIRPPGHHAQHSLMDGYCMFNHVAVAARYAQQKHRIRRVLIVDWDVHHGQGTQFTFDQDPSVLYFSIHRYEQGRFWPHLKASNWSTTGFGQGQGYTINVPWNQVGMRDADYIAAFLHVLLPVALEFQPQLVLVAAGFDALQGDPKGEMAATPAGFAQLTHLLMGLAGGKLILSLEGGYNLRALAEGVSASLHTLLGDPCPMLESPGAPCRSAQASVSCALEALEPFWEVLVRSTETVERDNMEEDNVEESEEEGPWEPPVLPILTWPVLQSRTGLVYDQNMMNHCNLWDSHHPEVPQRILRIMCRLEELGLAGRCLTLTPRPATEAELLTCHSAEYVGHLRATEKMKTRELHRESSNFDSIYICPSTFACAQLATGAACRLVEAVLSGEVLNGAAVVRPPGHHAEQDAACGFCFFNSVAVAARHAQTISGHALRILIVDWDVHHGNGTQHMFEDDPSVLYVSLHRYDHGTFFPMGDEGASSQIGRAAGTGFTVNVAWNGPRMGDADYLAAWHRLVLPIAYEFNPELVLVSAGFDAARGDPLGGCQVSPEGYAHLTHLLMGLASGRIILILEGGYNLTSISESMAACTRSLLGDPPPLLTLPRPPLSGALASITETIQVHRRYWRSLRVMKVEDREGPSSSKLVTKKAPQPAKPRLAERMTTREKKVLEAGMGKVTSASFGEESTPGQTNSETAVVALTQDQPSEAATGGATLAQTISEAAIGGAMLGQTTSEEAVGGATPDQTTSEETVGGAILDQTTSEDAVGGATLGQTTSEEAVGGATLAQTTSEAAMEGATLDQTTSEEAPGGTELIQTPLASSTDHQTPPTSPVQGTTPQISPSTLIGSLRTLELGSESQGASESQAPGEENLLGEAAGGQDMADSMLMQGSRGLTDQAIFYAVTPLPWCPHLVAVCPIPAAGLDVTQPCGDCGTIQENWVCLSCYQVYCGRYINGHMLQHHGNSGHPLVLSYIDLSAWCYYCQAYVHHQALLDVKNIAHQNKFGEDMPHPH
Protocol: To measure the inhibition of HDAC6 activity, purified human HDAC6 (BPS Bioscience; Cat. No. 5006) is incubated with substrate Ac-Arg-Gly-Lys(Ac)-AMC peptide (Bachem Biosciences; Cat. No. I-1925) for 1 hour at 30° C. in the presence of test compounds or vehicle DMSO control. The reaction is stopped with the HDAC inhibitor trichostatin A (Sigma; Cat. No. T8552) and the amount of Arg-Gly-Lys-AMC generated is quantitated by digestion with trypsin (Sigma; Cat. No. T1426) and subsequent measurement of the amount of AMC released using a fluorescent plate reader (Pherastar; BMG Technologies) set at Ex 340 nm and Em 460 nm. Concentration response curves are generated by calculating the fluorescence increase in test compound-treated samples relative to DMSO-treated controls, and enzyme inhibition (IC50) values are determined from those curves.

SMILES	pIC50
O=C(NO)c1cc2n(c1)CCN(C(=O)c1c[nH]c3ccccc13)C2 [Compound I-75, N-hydroxy-2-(1H-indol-3-ylcarbonyl)-1,2,3,4-tetrahydropyrrolo[1,2-a]pyrazine-7-carboxamide]	> 7.00
Cc1cc(C(=O)N2CCn3cc(C(=O)NO)cc3C2)c(C)o1 [Compound I-85, 2-(2,5-dimethyl-3-furoyl)-N-hydroxy-1,2,3,4-tetrahydropyrrolo[1,2-a]pyrazine-7-carboxamide]	> 7.00
Cc1c(C(=O)N2CCn3cc(C(=O)NO)cc3C2)cc(-c2ccccc2)n1-c1ccccc1 [Compound I-87, N-hydroxy-2-[(2-methyl-1,5-diphenyl-1H-pyrrol-3-yl)carbonyl]-1,2,3,4-tetrahydropyrrolo[1,2-a]pyrazine-7-carboxamide]	> 7.00
Cn1ccc2cc(C(=O)N3CCn4cc(C(=O)NO)cc4C3)ccc21 [Compound I-89, N-hydroxy-2-[(1-methyl-1H-indol-5-yl)carbonyl]-1,2,3,4-tetrahydropyrrolo[1,2-a]pyrazine-7-carboxamide]	> 7.00
Cn1c(C(=O)N2CCn3cc(C(=O)NO)cc3C2)cc(Cl)c1Cl [Compound I-91, 2-[(4,5-dichloro-1-methyl-1H-pyrrol-2-yl)carbonyl]-N-hydroxy-1,2,3,4-tetrahydropyrrolo[1,2-a]pyrazine-7-carboxamide]	> 7.00
Cc1cc(C(=O)N2CCn3cc(C(=O)NO)cc3C2)c(C)[nH]1 [Compound I-94, 2-[(2,5-dimethyl-1H-pyrrol-3-yl)carbonyl]-N-hydroxy-1,2,3,4-tetrahydropyrrolo[1,2-a]pyrazine-7-carboxamide]	> 7.00
Cc1c(C(=O)N2CCn3cc(C(=O)NO)cc3C2)cnn1-c1ccccc1 [Compound I-99, N-hydroxy-2-[(5-methyl-1-phenyl-1H-pyrazol-4-yl)carbonyl]-1,2,3,4-tetrahydropyrrolo[1,2-a]pyrazine-7-carboxamide]	> 7.00
O=C(NO)c1cn2c(n1)CN(C(=O)Nc1ccccc1)CC2 [Compound I-116, N2-hydroxy-N7-phenyl-5,6-dihydroimidazo[1,2-a]pyrazine-2,7(8H)-dicarboxamide]	> 7.00

same assay, conditions: bins: greater than 1 μM and less than 10 μM; greater than 10 μM

SMILES	pIC50
Cc1nc(C(=O)N2CCn3cc(C(=O)NO)cc3C2)cs1 [Compound I-73, N-hydroxy-2-[(2-methyl-1,3-thiazol-4-yl)carbonyl]-1,2,3,4-tetrahydropyrrolo[1,2-a]pyrazine-7-carboxamide]	< 5.00
Cc1oc(-c2ccccc2)nc1CC(=O)N1CCn2cc(C(=O)NO)cc2C1 [Compound I-82, N-hydroxy-2-[(5-methyl-2-phenyl-1,3-oxazol-4-yl)acetyl]-1,2,3,4-tetrahydropyrrolo[1,2-a]pyrazine-7-carboxamide]	< 5.00
O=C(NO)c1cc2n(c1)CCN(C(=O)c1cnn3cccnc13)C2 [Compound I-84, N-hydroxy-2-(pyrazolo[1,5-a]pyrimidin-3-ylcarbonyl)-1,2,3,4-tetrahydropyrrolo[1,2-a]pyrazine-7-carboxamide]	< 5.00
CCCCN1CCn2cc(C(=O)NO)cc2C1 [Compound I-86, 2-butyl-N-hydroxy-1,2,3,4-tetrahydropyrrolo[1,2-a]pyrazine-7-carboxamide]	< 5.00
Cn1c(C(=O)N2CCCn3nc(C(=O)NO)cc3C2)cc2ccccc21 [Compound I-105, N-hydroxy-5-[(1-methyl-1H-indol-2-yl)carbonyl]-5,6,7,8-tetrahydro-4H-pyrazolo[1,5-a][1,4]diazepine-2-carboxamide]	5.00 to 6.00
O=C(NO)c1cc2n(n1)CCN(C(=O)CCc1ccccc1)C2 [Compound I-106, N-hydroxy-5-(3-phenylpropanoyl)-4,5,6,7-tetrahydropyrazolo[1,5-a]pyrazine-2-carboxamide]	5.00 to 6.00
Cc1c(C(=O)N2CCCn3nc(C(=O)NO)cc3C2)oc2ccccc12 [Compound I-108, N-hydroxy-5-[(3-methyl-1-benzofuran-2-yl)carbonyl]-5,6,7,8-tetrahydro-4H-pyrazolo[1,5-a][1,4]diazepine-2-carboxamide]	5.00 to 6.00
O=C(NO)c1cc2n(n1)CCN(CCCn1cccc1)C2=O [Compound I-109, N-hydroxy-4-oxo-5-[3-(1H-pyrrol-1-yl)propyl]-4,5,6,7-tetrahydropyrazolo[1,5-a]pyrazine-2-carboxamide]	5.00 to 6.00
CCc1cccc(CC)c1NC(=O)N1CCn2cc(C(=O)NO)nc2C1 [Compound I-115, N7-(2,6-diethylphenyl)-N2-hydroxy-5,6-dihydroimidazo[1,2-a]pyrazine-2,7(8H)-dicarboxamide]	5.00 to 6.00
CCC(C)NC(=O)N1CCn2cc(C(=O)NO)nc2C1 (centres unmarked) [Compound I-118, N7-(sec-butyl)-N2-hydroxy-5,6-dihydroimidazo[1,2-a]pyrazine-2,7(8H)-dicarboxamide]	5.00 to 6.00

Second part, the compound after the results:

pIC50	SMILES
5.00 to 6.00	O=C(NO)c1cc2n(n1)CCCN(C(=O)C13CC4CC(CC(C4)C1)C3)C2 [Compound I-72, 5-(1-adamantylcarbonyl)-N-hydroxy-5,6,7,8-tetrahydro-4H-pyrazolo[1,5-a][1,4]diazepine-2-carboxamide]
5.00 to 6.00	CC1(C(=O)N2CCCn3cc(C(=O)NO)cc3C2)CCCCC1 [Compound I-74, N-hydroxy-2-[(1-methylcyclohexyl)carbonyl]-2,3,4,5-tetrahydro-1H-pyrrolo[1,2-a][1,4]diazepine-8-carboxamide]
5.00 to 6.00	CC(C)CCN1CCn2nc(C(=O)NO)cc2C1=O [Compound I-77, N-hydroxy-5-(3-methylbutyl)-4-oxo-4,5,6,7-tetrahydropyrazolo[1,5-a]pyrazine-2-carboxamide]
5.00 to 6.00	O=C(NO)c1cc2n(c1)CCCN(C(=O)c1c(Cl)cccc1Cl)C2 [Compound I-79, 2-(2,6-dichlorobenzoyl)-N-hydroxy-2,3,4,5-tetrahydro-1H-pyrrolo[1,2-a][1,4]diazepine-8-carboxamide]
5.00 to 6.00	Cc1ccc(-c2ccc(C(=O)N3CCCn4cc(C(=O)NO)cc4C3)cc2)cc1 [Compound I-80, N-hydroxy-2-[(4′-methylbiphenyl-4-yl)carbonyl]-2,3,4,5-tetrahydro-1H-pyrrolo[1,2-a][1,4]diazepine-8-carboxamide]
5.00 to 6.00	O=C(NO)c1cc2n(n1)CCN(CC1CC1)C2=O [Compound I-83, 5-(cyclopropylmethyl)-N-hydroxy-4-oxo-4,5,6,7-tetrahydropyrazolo[1,5-a]pyrazine-2-carboxamide]
5.00 to 6.00	CCOCCN1CCn2nc(C(=O)NO)cc2C1=O [Compound I-88, 5-(2-ethoxyethyl)-N-hydroxy-4-oxo-4,5,6,7-tetrahydropyrazolo[1,5-a]pyrazine-2-carboxamide]
5.00 to 6.00	Cc1nc(CC(=O)N2CCn3nc(C(=O)NO)cc3C2)cs1 [Compound I-90, N-hydroxy-5-[(2-methyl-1,3-thiazol-4-yl)acetyl]-4,5,6,7-tetrahydropyrazolo[1,5-a]pyrazine-2-carboxamide]
5.00 to 6.00	CCc1cc(C(=O)N2CCCn3cc(C(=O)NO)cc3C2)n(C)n1 [Compound I-95, 2-[(3-ethyl-1-methyl-1H-pyrazol-5-yl)carbonyl]-N-hydroxy-2,3,4,5-tetrahydro-1H-pyrrolo[1,2-a][1,4]diazepine-8-carboxamide]
5.00 to 6.00	O=C(NO)c1cc2n(c1)CCCN(C(=O)c1csc3ccccc13)C2 [Compound I-96, 2-(1-benzothien-3-ylcarbonyl)-N-hydroxy-2,3,4,5-tetrahydro-1H-pyrrolo[1,2-a][1,4]diazepine-8-carboxamide]
5.00 to 6.00	O=C(NO)c1cc2n(n1)CCCN(C(=O)c1cc3ccccc3s1)C2 [Compound I-98, 5-(1-benzothien-2-ylcarbonyl)-N-hydroxy-5,6,7,8-tetrahydro-4H-pyrazolo[1,5-a][1,4]diazepine-2-carboxamide]
